Reference: patent US11911477B2, “Use of fructose in preparing drug for treating ischemic injury” (Beihang University, priority 2021, dated 2024)

Tests used:
MCAO rats = assay: MCAO rat model: Longa behavioral score and TTC cerebral infarct area; format: in vivo; conditions: for area of cerebral infarction (TTC staining) / neurobehavioral characteristics (Longa scoring): 24 h
OGD-injured neurons [1] = assay: ATP and NADPH content of OGD-injured neurons (lentiviral sensors), fructose at different stages; format: cell-based, mice
Excerpt: (4) Content of ATP and NADPH: cortical neurons were isolated from P0-P1 suckling mice, the neurons were inoculated on a 7th day by adding a lentiviral transfection protein vector that specifically detects ATP and a lentiviral transfection protein vector iNap that specifically detects NADPH; the neurons were fixated with 4% PFA, subjected to immunofluorescence staining, and data was collected through a confocal microscope, the fluorescence intensity of virus vector protein was counted using ImageJ, and the contents of ATP and NADPH were calculated. By detecting an expression level of the lentiviral transfection protein vector that specifically detects ATP and the lentiviral transfection protein vector iNap that specifically detects NADPH in the primary neuron culture system, the levels are characterized for neuronal energy metabolism and redox metabolism. (2) Content of ATP and NADPH: cortical neurons were isolated from P0-P1 suckling mice, the neurons were inoculated on a 7th day by adding a lentiviral transfection protein vector that specifically detects ATP and a lentiviral transfection protein vector iNap that specifically detects NADPH; the neurons were divided into four groups: a control group, an OGD group (for OGD treatment), an OGD+Fru(per) group (fructose treatment during OGD treatment), and an OGD+Fru(post) group (fructose treatment in a reperfusion stage after OGD treatment). Reperfusion was conducted 24 h after OGD; the neurons were fixated with 4% PFA, subjected to MAP2 immunofluorescence staining to observe the content of ATP and NADPH of the neurons.

OGD-injured neurons [2] = assay: CellTiter-Glo Luminescent cell viability of OGD-injured neurons; conditions: OGD 1.5 h, 2 mM, after 24 h, FIG. 13
Procedure: The CellTiter-Glo® Luminescent cell viability test kit was used: the neuronal cells were cultured using a 96-well plate, and OGD treatment was conducted on neurons for 1.5 h on a 7th day; fructose, fructose-1,6-bisphosphate and glycerol fructose were added each at a concentration of 2 mM; after 24 h, the cell viability was detected by the kit.

OGD-injured neurons [3] = assay: Survival of OGD-injured neurons (TUNEL and MAP2 staining), fructose at different stages; format: cell-based; conditions: 24 h reperfusion
Procedure: (1) Cell model: the cerebral ischemic stroke was simulated using an OGD model, DIV7 primary neurons were treated with a glucose-free medium in a hypoxic box (1% O2+5% CO2+94% N2), oxygen glucose deprivation was conducted at 37° C. for 1.5 h, and the primary neurons was cultured in a normal medium for 24 h under normoxic conditions. (3) Survival of neurons: a survival state of neurons was counted by TUNEL staining and immunofluorescence staining; the neuronal cells were subjected to growing on glass coverslips, fixated with 4% PFA for 10 min, washed with PBS, and subjected to incubation in a blocking buffer for 1 h, and a MAP2 primary antibody working solution was added to conduct culture overnight at 4° C.; the cells were washed with PBS, a MAP2 secondary antibody working solution was added to incubate at room temperature for 1 h; the cells were washed with PBS, subjected to TUNEL staining, and a mounting agent containing 4′,6-diamidino-2-phenylindole (DAPI) was added for mounting. Data was collected through a focusing microscope and the number of cell deaths was counted using ImageJ. (1) Neuron survival: DIV7 neurons were divided into four groups: a control group, an OGD group (for OGD treatment), an OGD+Fru(per) group (fructose treatment during OGD treatment), and an OGD+Fru(post) group (fructose treatment in a reperfusion stage after OGD treatment). […]

DIV7 neurons [4] = assay: CellTiter-Glo Luminescent cell viability of DIV7 neurons; format: cell-based; conditions: for viability of DIV7 neurons: 0, 1, 2, 4, 6, 8 and 16 mM, each compared with the 0 mM group, FIG. 12
Excerpt: Effects of different concentrations of fructose on the viability of DIV7 neurons were studied using a CellTiter-Glo® Luminescent cell viability test kit, and an added concentration of the fructose was explored in the cell system.

DIV7 neurons [5] = assay: IPC with fructose pathway inhibitor sorbinil: ATP and NADPH level of DIV7 neurons; format: cell-based, mice; conditions: fructose pathway inhibited by sorbinil, cellular level
Procedure: Secondly, to further verify effects of the fructose pathway in IPC ischemia protection, a fructose pathway inhibitor sorbinil was added at the cellular level. […] (4) Content of ATP and NADPH: cortical neurons were isolated from P0-P1 suckling mice, the neurons were inoculated on a 7th day by adding a lentiviral transfection protein vector that specifically detects ATP and a lentiviral transfection protein vector iNap that specifically detects NADPH; the neurons were fixated with 4% PFA, subjected to immunofluorescence staining, and data was collected through a confocal microscope, the fluorescence intensity of virus vector protein was counted using ImageJ, and the contents of ATP and NADPH were calculated.

OGD-injured neurons [6] = assay: Survival rate of OGD-treated neurons by MAP2 and DAPI immunofluorescence staining; conditions: OGD 1.5 h, 2 mM, after 24 h, FIG. 14
Procedure: Immunofluorescence staining method: the neurons were cultured for 7 d, and subjected to OGD treatment for 1.5 h; fructose, fructose-1,6-bisphosphate and glycerol fructose were added each at a concentration of 2 mM; after 24 h, MAP2 and DAPI staining were conducted.

[7] = intraperitoneal injection after suture plug removal (MCAO+Fru-2)
[8] = tail vein injection after suture plug removal (MCAO+Fru-1)
[9] = fructose added in the OGD phase
[10] = fructose added in the reperfusion phase

| Structure (SMILES) | comparison of routes of administration (tail vein vs intraperitoneal) (MCAO rats; MCAO rats, neurobehavior and infarct area) | area of cerebral infarction (TTC staining) (MCAO rats; [7]) | neurobehavioral characteristics (Longa scoring) (MCAO rats; [7]) | area of cerebral infarction (TTC staining) (MCAO rats; [8]) | neurobehavioral characteristics (Longa scoring) (MCAO rats; [8]) | ATP production of neurons (OGD-injured neurons [1]; [9]) | NADPH production of neurons (OGD-injured neurons [1]; [9]) | ATP production of neurons (OGD-injured neurons [1]; [10]) | NADPH production of neurons (OGD-injured neurons [1]; [10]) | cell viability of OGD-injured neurons (OGD-injured neurons [2]) | neuronal death rate caused by OGD (OGD-injured neurons [3]; fructose added in the OGD phase (OGD+Fru(per))) | neuronal death rate caused by OGD (OGD-injured neurons [3]; fructose added in the reperfusion phase (OGD+Fru(post))) | viability of DIV7 neurons (DIV7 neurons [4]) | concentration with better effect of improving the activity of DIV7 neuronal cells (DIV7 neurons [4]; different concentrations of fructose, FIG. 11) | content of ATP after IPC (DIV7 neurons [5]; FIGS. 4A-B) | content of NADPH after IPC (DIV7 neurons [5]; FIGS. 5A-B) | survival rate of neurons after OGD (OGD-injured neurons [6]) |
| --- | --- | --- | --- | --- | --- | --- | --- | --- | --- | --- | --- | --- | --- | --- | --- | --- | --- |
| O=C(CO)[C@@H](O)[C@H](O)[C@H](O)CO [fructose] | tail vein injection is generally better than the intraperitoneal injection | reduce the area of cerebral infarction | can improve the neurobehavioral characteristics of MCAO rats | reduce the area of cerebral infarction | can improve the neurobehavioral characteristics of MCAO rats | can enhance the decrease in ATP and NADPH production of neurons caused by OGD | can enhance the decrease in ATP and NADPH production of neurons caused by OGD | can enhance the decrease in ATP and NADPH production of neurons caused by OGD | can enhance the decrease in ATP and NADPH production of neurons caused by OGD | can significantly increase the cell viability of OGD-injured neurons | can reduce the neuronal death rate caused by OGD | can reduce the neuronal death rate caused by OGD | can significantly enhance viability of the neurons | 1 to 6 mM | – | – | – |
| O=C1NC(=O)[C@@]2(CCOc3ccc(F)cc32)N1 [sorbinil] | – | – | – | – | – | – | – | – | – | – | – | – | – | – | the IPC no longer increases the contents of ATP and NADPH | the IPC no longer increases the contents of ATP and NADPH | – |
| O=C(COP(=O)(O)O)[C@@H](O)[C@H](O)[C@H](O)COP(=O)(O)O [reference compound] | – | – | – | – | – | – | – | – | – | have a tendency to increase the viability of OGD-injured neurons | – | – | can improve neuron viability | – | – | – | can improve the survival rate of the neurons |
